Measured values taken from publication PMC7717600, “Novel [(N-alkyl-3-indolylmethylene)hydrazono]oxindoles arrest cell cycle and induce cell apoptosis by inhibiting CDK2 and Bcl-2: synthesis, biological evaluation and in silico studies” (Journal of Enzyme Inhibition and Medicinal Chemistry, 2020).

Legend:
NCI-H460 = assay: NCI SRB screening; type: cell-based, human; conditions: NCI-H460, 10 μM
HCC-2998 = assay: NCI SRB screening; type: cell-based, human; conditions: HCC-2998, 10 μM
LOX IMVI = assay: NCI SRB screening; type: cell-based, human; conditions: 10 μM
PC-3 = assay: NCI SRB screening; type: cell-based, human; conditions: PC-3, 10 μM
A-549 = assay: SRB anti-proliferative assay; type: cell-based; conditions: Homo sapiens, A549; A-549, SRB, mean ± SE of 3
Description: Staurosporine, a clinically used antitumor drug, was co-assayed as a reference agent for the experiment.
(§1) Examination of the cytotoxic activity for the target conjugates was carried out in accordance with the SRB colorimetric assay protocol, as described previously.
(§2) In vitro anti-proliferative activity assay
(§3) Cells at a concentration of 0.50 x
(§4) Sulfo-Rhodamine-B stain (SRB) assay.
(§5) cell to the wall of the plate.
(§6) wells were prepared for each individual dose).
(§7) Unbound dye was removed by four

HCT-116 = assay: SRB anti-proliferative assay; type: cell-based; conditions: Homo sapiens; HCT-116, SRB, mean ± SE of 3
Description: (§8) All the newly prepared target conjugates (7, 8a–c, 9 and 10a–e) were investigated for the prospective growth inhibitory actions against three different cancer cell lines viz.; A-549, MDA-MB-231, and HCT-116, using the sulforhodamine B colorimetric (SRB) assay. Staurosporine, a clinically used antitumor drug, was co-assayed as a reference agent for the experiment.
as §1, §2, §3, §4, §5, §6, §7

MDA-MB-231 = assay: SRB anti-proliferative assay; type: cell-based; conditions: Homo sapiens; MDA-MB-231, SRB, mean ± SE of 3
Description: as §8, §1, §2, §3, §4, §5, §6, §7

CCRF-CEM = conditions: 10 μM
HL-60(TB) = conditions: HL-60(TB), 10 μM
K-562 = conditions: K-562, 10 μM
MOLT-4 = conditions: MOLT-4, 10 μM
RPMI-8226 = conditions: RPMI-8226, 10 μM
SR = conditions: 10 μM
HOP-62 = conditions: HOP-62, 10 μM
HOP-92 = conditions: HOP-92, 10 μM
NCI-H226 = conditions: NCI-H226, 10 μM
HCT-15 = conditions: HCT-15, 10 μM
SW-620 = conditions: SW-620, 10 μM
SF-539 = conditions: SF-539, 10 μM
SNB-19 = conditions: SNB-19, 10 μM
SNB-75 = conditions: SNB-75, 10 μM
U251 = conditions: U251, 10 μM
MALME-3M = conditions: 10 μM
SK-MEL-2 = conditions: SK-MEL-2, 10 μM
UACC-257 = conditions: UACC-257, 10 μM
UACC-62 = conditions: UACC-62, 10 μM
OVCAR-3 = conditions: OVCAR-3, 10 μM
OVCAR-4 = conditions: OVCAR-4, 10 μM
OVCAR-8 = conditions: OVCAR-8, 10 μM
NCI/ADR-RES = conditions: 10 μM
SK-OV-3 = conditions: SK-OV-3, 10 μM
786-0 = conditions: 786-0, 10 μM
A498 = conditions: A498, 10 μM
ACHN = conditions: 10 μM
RXF 393 = conditions: RXF 393, 10 μM
TK-10 = conditions: TK-10, 10 μM
UO-31 = conditions: UO-31, 10 μM
MCF7 = conditions: MCF7, 10 μM
MDA-MB-231/ATCC = conditions: MDA-MB-231, 10 μM
HS 578T = conditions: 10 μM
BT-549 = conditions: BT-549, 10 μM
T-47D = conditions: 10 μM
NCI-H322M = assay: NCI SRB screening; conditions: 10 μM

SMILES: CCCn1cc(/C=N/N=C2\C(=O)Nc3ccc(OC(F)(F)F)cc32)c2ccccc21 [Compound 8b]
- GI % (NCI-H460): 11%
- GI % (HCC-2998): – (Only GI % higher than 10% are shown)
- GI % (LOX IMVI): – (Only GI % higher than 10% are shown)
- GI % (PC-3): 32%
- IC50 (A-549): 9.2 ± 0.78 µM
- IC50 (HCT-116): 19.1 ± 1.34 µM
- IC50 (MDA-MB-231): 8.9 ± 0.61 µM
- GI % (CCRF-CEM): 52%
- GI % (HL-60(TB)): 12%
- GI % (K-562): 33%
- GI % (MOLT-4): 50%
- GI % (RPMI-8226): 30%
- GI % (SR): – (Only GI % higher than 10% are shown)
- GI % (HOP-62): 21%
- GI % (HOP-92): – (Only GI % higher than 10% are shown)
- GI % (NCI-H226): – (Only GI % higher than 10% are shown)
- GI % (HCT-15): 23%
- GI % (SW-620): – (Only GI % higher than 10% are shown)
- GI % (SF-539): – (Only GI % higher than 10% are shown)
- GI % (SNB-19): – (Only GI % higher than 10% are shown)
- GI % (SNB-75): – (Only GI % higher than 10% are shown)
- GI % (U251): 13.32%
- GI % (MALME-3M): – (Only GI % higher than 10% are shown)
- GI % (SK-MEL-2): – (Only GI % higher than 10% are shown)
- GI % (UACC-257): – (Only GI % higher than 10% are shown)
- GI % (UACC-62): 11%
- GI % (OVCAR-3): – (Only GI % higher than 10% are shown)
- GI % (OVCAR-4): – (Only GI % higher than 10% are shown)
- GI % (OVCAR-8): 15%
- GI % (NCI/ADR-RES): 15%
- GI % (SK-OV-3): – (Only GI % higher than 10% are shown)
- GI % (786-0): – (Only GI % higher than 10% are shown)
- GI % (A498): – (Only GI % higher than 10% are shown)
- GI % (ACHN): 15%
- GI % (RXF 393): – (Only GI % higher than 10% are shown)
- GI % (TK-10): – (Only GI % higher than 10% are shown)
- GI % (UO-31): 19%
- GI % (MCF7): 29%
- GI % (MDA-MB-231/ATCC): – (Only GI % higher than 10% are shown)
- GI % (HS 578T): – (Only GI % higher than 10% are shown)
- GI % (BT-549): – (Only GI % higher than 10% are shown)
- GI % (T-47D): 35%
- GI % (NCI-H322M): – (Only GI % higher than 10% are shown)

SMILES: CCCn1cc(C=NN=C2C(=O)Nc3ccc([N+](=O)[O-])cc32)c2ccccc21 [Compound 8c]
- GI % (NCI-H460): 19%
- GI % (HCC-2998): – (Only GI % higher than 10% are shown)
- GI % (LOX IMVI): – (Only GI % higher than 10% are shown)
- GI % (PC-3): – (Only GI % higher than 10% are shown)
- IC50 (A-549): 12.3 ± 1.05 µM
- IC50 (HCT-116): 6.4 ± 0.5 µM
- IC50 (MDA-MB-231): 15.6 ± 0.98 µM
- GI % (CCRF-CEM): – (Only GI % higher than 10% are shown)
- GI % (HL-60(TB)): 10%
- GI % (K-562): 18%
- GI % (MOLT-4): – (Only GI % higher than 10% are shown)
- GI % (RPMI-8226): – (Only GI % higher than 10% are shown)
- GI % (SR): 19%
- GI % (HOP-62): – (Only GI % higher than 10% are shown)
- GI % (HOP-92): 11%
- GI % (NCI-H226): – (Only GI % higher than 10% are shown)
- GI % (HCT-15): – (Only GI % higher than 10% are shown)
- GI % (SW-620): – (Only GI % higher than 10% are shown)
- GI % (SF-539): 10%
- GI % (SNB-19): 22%
- GI % (SNB-75): – (Only GI % higher than 10% are shown)
- GI % (U251): 28%
- GI % (MALME-3M): – (Only GI % higher than 10% are shown)
- GI % (SK-MEL-2): – (Only GI % higher than 10% are shown)
- GI % (UACC-257): – (Only GI % higher than 10% are shown)
- GI % (UACC-62): – (Only GI % higher than 10% are shown)
- GI % (OVCAR-3): – (Only GI % higher than 10% are shown)
- GI % (OVCAR-4): – (Only GI % higher than 10% are shown)
- GI % (OVCAR-8): 29%
- GI % (NCI/ADR-RES): – (Only GI % higher than 10% are shown)
- GI % (SK-OV-3): – (Only GI % higher than 10% are shown)
- GI % (786-0): – (Only GI % higher than 10% are shown)
- GI % (A498): – (Only GI % higher than 10% are shown)
- GI % (ACHN): – (Only GI % higher than 10% are shown)
- GI % (RXF 393): – (Only GI % higher than 10% are shown)
- GI % (TK-10): – (Only GI % higher than 10% are shown)
- GI % (UO-31): – (Only GI % higher than 10% are shown)
- GI % (MCF7): 15%
- GI % (MDA-MB-231/ATCC): – (Only GI % higher than 10% are shown)
- GI % (HS 578T): – (Only GI % higher than 10% are shown)
- GI % (BT-549): – (Only GI % higher than 10% are shown)
- GI % (T-47D): – (Only GI % higher than 10% are shown)
- GI % (NCI-H322M): – (Only GI % higher than 10% are shown)

SMILES: CC(C)n1cc(C=NN=C2C(=O)Nc3ccccc32)c2ccccc21 [Compound 9]
- GI % (NCI-H460): – (Only GI % higher than 10% are shown)
- GI % (HCC-2998): – (Only GI % higher than 10% are shown)
- GI % (LOX IMVI): – (Only GI % higher than 10% are shown)
- GI % (PC-3): – (Only GI % higher than 10% are shown)
- IC50 (A-549): 31.7 ± 2.27 µM
- IC50 (HCT-116): 28.2 ± 1.73 µM
- IC50 (MDA-MB-231): 10.4 ± 0.8 µM
- GI % (CCRF-CEM): – (Only GI % higher than 10% are shown)
- GI % (HL-60(TB)): 18%
- GI % (K-562): – (Only GI % higher than 10% are shown)
- GI % (MOLT-4): 13%
- GI % (RPMI-8226): – (Only GI % higher than 10% are shown)
- GI % (SR): 11%
- GI % (HOP-62): – (Only GI % higher than 10% are shown)
- GI % (HOP-92): 14%
- GI % (NCI-H226): 16%
- GI % (HCT-15): – (Only GI % higher than 10% are shown)
- GI % (SW-620): – (Only GI % higher than 10% are shown)
- GI % (SF-539): – (Only GI % higher than 10% are shown)
- GI % (SNB-19): – (Only GI % higher than 10% are shown)
- GI % (SNB-75): 33%
- GI % (U251): – (Only GI % higher than 10% are shown)
- GI % (MALME-3M): – (Only GI % higher than 10% are shown)
- GI % (SK-MEL-2): – (Only GI % higher than 10% are shown)
- GI % (UACC-257): – (Only GI % higher than 10% are shown)
- GI % (UACC-62): – (Only GI % higher than 10% are shown)
- GI % (OVCAR-3): – (Only GI % higher than 10% are shown)
- GI % (OVCAR-4): – (Only GI % higher than 10% are shown)
- GI % (OVCAR-8): – (Only GI % higher than 10% are shown)
- GI % (NCI/ADR-RES): – (Only GI % higher than 10% are shown)
- GI % (SK-OV-3): – (Only GI % higher than 10% are shown)
- GI % (786-0): – (Only GI % higher than 10% are shown)
- GI % (A498): – (Only GI % higher than 10% are shown)
- GI % (ACHN): – (Only GI % higher than 10% are shown)
- GI % (RXF 393): – (Only GI % higher than 10% are shown)
- GI % (TK-10): – (Only GI % higher than 10% are shown)
- GI % (UO-31): 14%
- GI % (MCF7): 10%
- GI % (MDA-MB-231/ATCC): 11%
- GI % (HS 578T): – (Only GI % higher than 10% are shown)
- GI % (BT-549): – (Only GI % higher than 10% are shown)
- GI % (T-47D): 13%
- GI % (NCI-H322M): – (Only GI % higher than 10% are shown)
